Test results published in paper PMC6008883, “Identification of Peptide Antagonists to Thioredoxin Glutathione Reductase of Schistosoma japonicum” (BioMed Research International, 2018).

Experiments:
SjTGR [1] = experiment: Phage binding to recombinant SjTGR by ELISA; design: species or system Schistosoma japonicum; conditions: mean of triplicates; for Binding to SjTGR (ELISA OD450nm): phage 1×10^12 pfu/ml, HRP-conjugated anti-M13 antibody, TMB, positive if OD450nm 2.1 times above negative control, binding decreased with decreasing titers
Procedure: Phage clones were amplified according to the manual. A 96-well plate was coated with 100 μl of SjTGR solution (10 μg/ml, 0.1 M NaHCO3, pH 8.6) overnight at 4°C. After blocking with PBS containing 5% milk powder at rt for 1 h, 100 μl of phage solution with titers of 1 x 10^12, 2.5 x 10^11, 6 x 10^10, 1.5 x 10^10, and 3.75 x 10^9 pfu/ml was used per well, respectively. The phage library was set as the negative phage control. Following an incubation at 37°C for 2 h and six washes with TBST (0.5% Tween-20), 200 μl of diluted HRP-conjugated anti-M13 monoclonal antibody solution was added for 1 h at rt. Following six washes with TBST, 100 μl of substrate TMB solution was added for 10 minutes at rt. 50 μl of 2 M sulfuric acid solution (H2SO4) was added to terminate the reaction and absorbance at 450nm was measured. OD450nm values 2.1 times above the negative control value were considered positive.

[2] = tested on: GR of SjTGR (thioredoxin glutathione reductase of Schistosoma japonicum); experiment: Inhibition of GR activity of SjTGR; format: biochemical; conditions: phage clone, 10^11 pfu; SjTGR 48 nM; vs activity of SjTGR without phage; repeated three times; P<0.01 vs phage library for JIPDys1, JIPDys2
Procedure: To assess the inhibitory action of phages, the activities of TrxR, GR, and glutaredoxin (Grx) of SjTGR were assayed as described in [21]. […] system, phage library was used as negative phage control, and the effect of phages on the activity of SjTGR was expressed as percentage inhibition: Inhibition percentage = (activity of SjTGR – activity of SjTGR with isolated phage)/activity of SjTGR. The experiment was repeated three times.
(§1) The activities of TrxR, GR, and Grx of SjTGR were assayed with different concentrations (0.5 μM, 1 μM, and 2 μM) of the synthesized peptide JIPDys1 to determine the 50% inhibitory concentration (IC50), and the same amount of PBS was added to the system as control. The experiment was repeated three times. The IC50 values were calculated by curve fitting using the SPSS 13.0 software.
(§2) All data are given as the mean ± standard deviation (SD). The activities of TrxR, GR, and Grx of SjTGR (absorbance/S (ΔA/S)) with JIPDys1, JIPDys2, JIPDys3, and JIPDys4 were statistically compared with the negative phage control (phage library) using two-tailed Student's t-tests. The activities of TrxR, GR, and Grx of SjTGR (absorbance/S (ΔA/S)) with the synthesized peptide were statistically compared with PBS control using two-tailed Student's t-tests, too. SPSS 13.0 was used for the statistical analyses. Differences between mean values were considered to be significant at the level of 5%.

[3] = tested on: Grx of SjTGR (thioredoxin glutathione reductase of Schistosoma japonicum); experiment: Inhibition of Grx activity of SjTGR; format: biochemical; conditions: phage clone, 10^11 pfu; SjTGR 48 nM; vs activity of SjTGR without phage; repeated three times; P<0.01 vs phage library for JIPDys1, JIPDys3
Procedure: (§3) To assess the inhibitory action of phages, the activities of TrxR, GR, and glutaredoxin (Grx) of SjTGR were assayed as described in [21]. 10 μl ([…]) of phage solution was added to the reaction system, phage library was used as negative phage control, and the effect of phages on the activity of SjTGR was expressed as percentage inhibition: Inhibition percentage = (activity of SjTGR – activity of SjTGR with isolated phage)/activity of SjTGR. The experiment was repeated three times.
as §1, §2

[4] = tested on: TrxR of SjTGR (thioredoxin glutathione reductase of Schistosoma japonicum); experiment: Inhibition of TrxR activity of SjTGR; format: biochemical; conditions: phage clone, 10^11 pfu; SjTGR 48 nM; vs activity of SjTGR without phage; repeated three times; P<0.01 vs phage library for JIPDys1, JIPDys2, JIPDys3
Procedure: To assess the inhibitory action of phages, the activities of TrxR, GR, and glutaredoxin (Grx) of SjTGR were assayed as described in [21]. […], phage library was used as negative phage control, and the effect of phages on the activity of SjTGR was expressed as percentage inhibition: Inhibition percentage = (activity of SjTGR – activity of SjTGR with isolated phage)/activity of SjTGR. The experiment was repeated three times.
as §1, §2

SjTGR [5] = experiment: Inhibition of SjTGR enzyme activity (TrxR, GR and Grx overall); format: biochemical, Schistosoma japonicum; conditions: JIPDys1 from phage screening
Procedure: as §3, §1

| Sequence | Binding to SjTGR (ELISA OD450nm) (SjTGR [1]) | Percentage of inhibition of GR [2] [%] | Percentage of inhibition of Grx [3] [%] | Percentage of inhibition of TrxR [4] [%] | Binding capacity compared with the other phages (SjTGR [1]; ELISA, phage titers 3.75 x 10^9 to 1.0 x 10^12 pfu/ml) | Inhibition of SjTGR activity (SjTGR [5]) |
| --- | --- | --- | --- | --- | --- | --- |
| KHMHWHPPALNT [JIPDys4, M13 phage clone from Ph.D.-12 library displaying peptide …] | bound to SjTGR | 1.50 | 1.23 | 0.73 |  |  |
| LHAETRSAMHRT [JIPDys2, M13 phage clone from Ph.D.-12 library displaying peptide …] | bound to SjTGR | 69.43 | 25.64 | 45.24 |  |  |
| WPHNWWPHFKVK [JIPDys1, M13 phage clone from Ph.D.-12 library displaying peptide …] | bound to SjTGR | 80.80 | 53.56 | 59.04 | strongest binding capacity among those phages | more than 50% |
| YTMPSLTLYAMG [JIPDys3, M13 phage clone from Ph.D.-12 library displaying peptide …] | bound to SjTGR | 20.88 | 43.02 | 54.72 |  |  |
